Here are results for 4 compounds from US10821106B2, “Composition and methods of use of novel phenylalanine small organic compounds to directly modulate PCSK9 protein activity” (SRX Cardio, LLC, priority 2015, dated 2020).

Assay [1] addresses T1, recombinant PCSK9 (Homo sapiens, UniProt Q8NBP7). The assay can be described thus: DiI-LDL Uptake Assay in HepG2 cells. It is filed as cell-based. As to conditions: 2.5 ug/mL PCSK9, DiI-LDL 5 ug/ml, read-out: Uptake Assay: % Inhibition of 2.5 ug/mL recombinant PCSK9 @ X compound dose; for inhibition at 1.25 µM: 1.25 uM compound. The procedure:
The cells were incubated in a 96-well plate for a total of 16 h in the absence or presence of recombinant PCSK9 (final concentration 2.5 ug/ml) protein alone or recombinant PCSK9 protein pre-mixed with indicated concentration of experimental compounds (Cmpd #). After 16 h, DiI-LDL (final concentration 5 ug/ml) was added to the incubation mixtures. After 4 h, cells are stained with Hoechst 33342 for 30 minutes, then rinsed with phosphate buffered saline, and then a final volume of 100 ul phosphate buffered saline was added to each well. The fluorescence was measured (DiI: excitation at 550 nm and emission at 590 nm; Hoechst: excitation at 355 nm, emission at 460 nm). The percent recombinant PCSK9 inhibition was calculated as [‘Compound Dose DiI Fluorescence’-‘2.5 ug/ml PCSK9-treated DiI Fluorescence’]/[‘No PCSK9 DiI Fluorescence’-‘2.5 ug/ml PCSK9-treated DiI Fluorescence’]×100%.
Cellular DiI-LDL uptake can be measured using protocols adapted from Benjannet et al., “Effects of the prosegment and pH on the activity of PCSK9: evidence for additional processing events” J Biol Chem. 285(52): 40965-40978 (2010) and “Composition and Methods of Use of Small Molecules as Binding Ligands for the Modulation of Proprotein Convertase Subtilisin/Kexin Type 9 (PCSK9) Protein Activity” (WO2016029037), which are incorporated by reference in their entirety.
Cells, such as HepG2, HuH7, FL83B, or a cell line transfected with a short-hairpin PCSK9 knockdown sequence such as HepG2/shPCSK9, HuH7/shPCSK9, or FL83B/shPCSK9 are plated and cultured at 37° C. for 12-24 h. Culture media is removed and replaced with fresh lipoprotein-depleted culture media supplemented with 5 ug/mL of DiI-LDL (Kalen Biomedical) or lipoprotein-depleted culture media supplemented with 5 ug/mL of DiI-LDL plus a predetermined concentration of recombinant PCSK9, for example a 10 nM final concentration of PCSK9. Lipoprotein-depleted culture media can be composed of DMEM (Invitrogen) with 10% lipoprotein-depleted fetal bovine serum (Kalen Biomedical) and supplemented with penicillin-streptomycin (Life Technologies). Cells are dosed with small molecule test compounds at doses ranging from 0 nM to 100 uM.
Following an incubation period of specified length, such as 6 hours, Hoechst 33342 (AnaSpec) stain is added to the cell media per manufacturer's instructions and incubated for a specified length (e.g., 30 minutes). The lipoprotein-depleted media is removed and cells rinsed three times with phosphate buffered saline. A final volume of phosphate buffered saline is added back to the wells. The DiI fluorescence is measured with a plate reader using an exciting wavelength of 550 nm and the resulting emission at 590 nm is measured. The Hoechst stain fluorescence is measured with a plate reader using an exciting wavelength of 355 nm and the resulting emission at 460 nm is measured.
Cells are analyzed by for both Hoechst stain (DNA content) and DiI-LDL fluorescence. Cells incubated with small molecule compounds that are inhibitors of PCSK9 will be expected to show increased amounts of DiI-LDL fluorescence, relative to control (no compound) specimens, and cells incubated with small molecule compounds that are activators of PCSK9 will be expected to show decreased amounts of DiI-LDL fluorescence relative to control (no compound) specimens.

The target of assay [2] is T1, recombinant PCSK9. The assay can be described thus: LDLR Flow / FACS Assay in HuH7 cells. The class given is cell-based. As to conditions: 5.0 ug/mL PCSK9, 6 h, read-out: LDLR Flow Assay: % Inhibition of 5.0 ug/mL recombinant PCSK9 @ X compound dose; for inhibition at 1.25 µM: Huh-7, 1.25 uM compound. The procedure: The cells were incubated in 24-well plates for a total of 6 h in the absence or presence of recombinant PCSK9 protein (final concentration of 5.0 ug/ml), or in the presence of PCSK9 protein mixed with indicated concentration of experimental compound (Cmpd #). After 6 hours, the cells were released from the plate, stained with anti-LDLR antibody, then rinsed, counterstained with DAPI, and then measured by fluorescence activated cell sorting (FACS). The percent recombinant PCSK9 inhibition was calculated as [‘Compound Dose LDLR Fluorescence’-‘5.0 ug/ml PCSK9-treated LDLR Fluorescence’]/[‘No PCSK9 Basal LDLR Fluorescence’-‘5.0 ug/ml PCSK9-treated LDLR Fluorescence’]×100%.
LDLR levels can be measured using flow cytometry or fluorescence activated cell sorting (FACS) using protocols adapted from Benjannet et al., “Effects of the prosegment and pH on the activity of PCSK9: evidence for additional processing events” J Biol Chem. 285(52): 40965-40978 (2010) and “Composition and Methods of Use of Small Molecules as Binding Ligands for the Modulation of Proprotein Convertase Subtilisin/Kexin Type 9 (PCSK9) Protein Activity” (WO2016029037), which are incorporated by reference in their entirety.
Cells, such as HepG2, HuH7, FL83B, or a cell line transfected with a short-hairpin PCSK9 knockdown sequence such as HepG2/shPCSK9, HuH7/shPCSK9, or FL83B/shPCSK9 are plated and cultured at 37° C. for 12-24 h. Culture media is removed and replaced with fresh culture media or culture media plus a predetermined amount of recombinant PCSK9, for example a 10 nM final concentration of PCSK9. Cell culture media can be composed of DMEM (Invitrogen) with 10% fetal bovine serum (Life Technologies) supplemented with penicillin-streptomycin (Life Technologies). Cells are dosed with small molecule test compounds at doses ranging from 0 nM to 100 uM […]
Cells are analyzed for both cell viability marker (dead cells) and LDLR in live cells using a flow cytometer per the manufacturer's operating manual. […]

T1 sequence (Q8NBP7 153-692): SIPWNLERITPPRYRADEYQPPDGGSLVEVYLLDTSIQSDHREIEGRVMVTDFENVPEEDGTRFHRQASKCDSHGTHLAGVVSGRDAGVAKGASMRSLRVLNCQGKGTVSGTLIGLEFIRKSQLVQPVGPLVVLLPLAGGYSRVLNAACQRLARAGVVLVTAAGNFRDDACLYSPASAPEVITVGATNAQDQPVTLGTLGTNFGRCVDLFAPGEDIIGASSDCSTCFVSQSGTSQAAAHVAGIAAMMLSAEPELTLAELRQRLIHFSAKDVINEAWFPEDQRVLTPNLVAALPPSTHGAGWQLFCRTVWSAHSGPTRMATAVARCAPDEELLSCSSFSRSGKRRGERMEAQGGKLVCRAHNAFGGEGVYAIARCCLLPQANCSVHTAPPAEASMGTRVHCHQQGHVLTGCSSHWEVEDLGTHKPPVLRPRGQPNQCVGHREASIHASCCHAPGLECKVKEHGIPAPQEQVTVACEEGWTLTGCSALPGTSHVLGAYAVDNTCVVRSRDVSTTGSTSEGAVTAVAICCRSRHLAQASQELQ

On to `Cc1cc(C[C@H](N)C(=O)NC(C)C)ccc1-c1cccc(O)c1` [Compound 4, (S)-2-amino-3-(3′-hydroxy-2-methyl-[1,1′-biphenyl]-4-yl)-N-isopropylpropanamide], for which the inhibition at 1.25 µM in assay [1] is around 28%; in assay [2] it was around 10%.
Take `CC(C)NC(=O)[C@@H](N)Cc1ccc(-c2ccccc2)cc1` [Compound 1, (S)-3-([1,1′-biphenyl]-4-yl)-2-amino-N-isopropylpropanamide]: the inhibition at 1.25 µM in assay [1] and in assay [2] was around 15% throughout. Also, the inhibition at 10 µM in assay [1] (10 uM compound) is above 100%; in assay [2] (Huh-7, 10 uM compound), around 55%.
Take `CC(C)NC(=O)[C@@H](N)Cc1ccc(-c2cc[nH]c(=O)c2)cc1` [Compound 2, (S)-2-amino-N-isopropyl-3-(4-(2-oxo-1,2-dihydropyridin-4-yl)phenyl)propanamide]: the inhibition at 1.25 µM in assay [1] was around 40%.
Take `CC(C)NC(=O)[C@@H](N)Cc1ccc(-c2cccc(O)c2)cc1` [Compound 3, (S)-2-amino-3-(3′-hydroxy-[1,1′-biphenyl]-4-yl)-N-isopropylpropanamide]: in assay [1], the inhibition at 1.25 µM was around 44%.
